According to patent US20260137697A1, “THIAZOLO[5,4-D]PYRIMIDINE COMPOUNDS, COMPOSITIONS COMPRISING THEM AND USES THEREOF” (University de Montreal, priority 2022, published 2026):
Read-outs that look alike come from different tables or passages of the source.

Columns and labels:
Format in all cases: cell-based, human
NCI-H358 cells = test: Proliferation inhibition, CellTiter-Glo, NCI-H358; conditions: Table D-2, NCI-H358 (KRAS-G12C), 3 days, read-out: Prolif. (proliferation EC50)
Description: (§1) All cancer cell lines (A375, A101D, A2058, RKO, HT29 SK-MEL 30, IPC298, HepG2, HCT-116, Lovo, SW620, SW480, NCI-H358, NCI-H2122, Calu-6, NCIH2087, NCIH1755, NCIH1666 and Mewo) were obtained from ATCC and cultured in RPM1-1640 medium (Gibco) supplemented with 5% heat inactivated fetal bovine serum (FBS, Wisent) at 37° C. under 5% CO2. Cells were maintained in T175 flasks (Greiner). They were passaged by removing the culture medium, washing once in 10 mL of room temperature Phosphate Buffered Saline (PBS; Wisent) and incubating at 37° C. with 2 mL of 0.05% Trypsin (Thermo-Fisher). Trypsin was then inactivated by adding complete growth medium and the cells were then replated in a T175 culture dish at the appropriate dilution. All cell lines were routinely tested for mycoplasma contamination. Tissue type and mutational status of each cell line can be found in Table B.
(§2) CellTiter-Glo® viability analysis was conducted on cells plated in 100 μL of complete RPMI-1640 growth medium in 96-well flat-bottomed white opaque plates (Greiner or Croning) at a density indicated in Table E (for each CCL, number of cells plated per well of a 96-well plate to perform the CellTiter-Glo® cell viability assay). The cell density in cells/cm^2 would correspond to cell number divided by the area of one well of a 96-well plate (0.32 cm^2). […]
(§3) After 3 days of incubation, the growth media were removed by aspiration and 60 μL of diluted CellTiter-Glo® reagent (10 μL CellTiter-Glo® reagent+50 μL of PBS) was added to each well. […] Luminescence signals were then acquired on a Synergy Neo2 plate reader (Biotek).
(§4) The effect of each compound dilution on the proliferation of cancer cell lines was expressed in % inhibition and calculated as follows. […]
(§5) The ability of each compound to inhibit proliferation was expressed as a EC50 value obtained by plotting the effect values for each data point of a dilution series and fitting the obtained curves using a log(agonist) versus response—variable slope (four parameters) function using GraphPadPrism (V7.0) or Dotmatics Screening Ultra platform.

Lovo cells = test: Proliferation inhibition, CellTiter-Glo, Lovo; conditions: Table D-2, Lovo (KRAS-G13D), 3 days, read-out: Prolif. (proliferation EC50)
Description: as §1, §2, §3, §4, §5

pERK, Lovo cells = test: Phospho-ERK inhibition, AlphaLISA p-ERK 1/2, Lovo; conditions: Table D-2; for IC50: Lovo (KRAS-G13D); for pERK value in parentheses, % inhibition (Ymin): Lovo, lowest point of IC50 curve
Description: as §1
(c) Measurement of Phospho-ERK Inhibition in Cultivated Human Cancer Cell Lines by the AlphaLISA® SureFire® Ultra™ p-ERK 1/2 (Thr2O2/Tyr204)
AlphaLISA® SureFire® Ultra™ p-ERK 1/2 (Thr202/Tyr204) analysis was conducted on cells plated in 100 μL of complete RPMI-1640 growth medium in 96-well flat-bottomed transparent dishes (Costar) at a density indicated in Table C. Cells were maintained overnight at 37° C. under 5% CO2 before treatment with compounds' dilution series for one hour. The cell density in cells/cm^2 corresponds to cell number divided by the area of one well of a 96-well plate (0.143 cm^2).
In a dilution series 100 μL/well of test substance dilution prepared in complete RPMI-1640 growth media was added to the cells. The dilution series is selected so that ten concentrations cover a range from 10 μM to 0.33 nM. If necessary, the initial concentration of 10 μM is increased to 100 μM or lowered to 1 μM (as in the case of A375 and H1666 cells, which are generally more sensitive to the compounds) and further dilution is carried out accordingly. The final concentration of DMSO in the assay is set at 0.5%.
After treatment, media was removed, and cells were lysed in 50 μL of 1× AlphaScreen Ultra Lysis Buffer (Perkin Elmer). The AlphaLISA® SureFire® Ultra™ p-ERK 1/2 (Thr202/Tyr204) (PerkinElmer) reactions were performed with 5 μL of cell lysate according to the manufacturer's specifications in 384-well proxyplates (Perkin Elmer) followed by overnight incubation of the reactions at room temperature in a humidified chamber. After completion of the reactions, the signals were recorded on an EnVision plate reader (Perkin Elmer) using built in AlphaLISA® settings.
The effect of each compound dilution on the pERK signal was expressed in % inhibition and calculated as follows. An internal 100% inhibition control (1 μM trametinib, cat. No. HY-10999; MedChem Express; CAS No. 871700-17-3) was included in each plate and used as a measure of pERK background. First, the value obtained for trametinib was subtracted from each data point. The average of DMSO (vehicle) controls (set as 0% inhibition) was established and used to calculate % inhibition:
as §5, with “pERK signal” for “proliferation”, “an IC50” for “a EC50”, “inhibition” for “effect”
When present, paradoxical pERK induction is inferred from the negative % inhibition values observed in the pERK IC50 curves of a compound.

SK-MEL30 cells = test: Proliferation inhibition, CellTiter-Glo, SK-MEL30; conditions: Table D-1, SK-MEL30 (NRAS-Q61K), 3 days, read-out: Prolif. (proliferation EC50)
Description: as §1, §2, §3, §4, §5

A375 cells = test: Proliferation inhibition, CellTiter-Glo, A375; conditions: Table D-1, A375 (BRAF V600E), 3 days, read-out: Prolif. (proliferation EC50)
Description: as §1, §2, §3, §4, §5

HepG2 cells = test: Proliferation inhibition, CellTiter-Glo, HepG2; conditions: Table D-1, HepG2 (NRAS-Q61L), 3 days, read-out: Prolif. (proliferation EC50)
Description: as §1, §2, §3, §4, §5

Row | SMILES | EC50 (NCI-H358 cells) [nM] | EC50 (Lovo cells) [nM] | IC50 (pERK, Lovo cells) [nM] | pERK value in parentheses, % inhibition (Ymin) (pERK, Lovo cells) | EC50 (SK-MEL30 cells) [nM] | EC50 (A375 cells) [nM] | EC50 (HepG2 cells) [nM] | EC50 (NCI-H358 cells; Homo sapiens, 72 h) [nM] | EC50 (Lovo cells; Homo sapiens, 72 h) [nM] | IC50 (pERK, Lovo cells; Homo sapiens) [nM] | EC50 (SK-MEL30 cells; Homo sapiens, SK-MEL-30, 72 h) [nM] | EC50 (A375 cells; Homo sapiens, A-375, 72 h) [nM] | EC50 (HepG2 cells; Homo sapiens, 72 h) [nM]
1 | N#CC1(c2cccc3c2ncn3-c2nc3c(Nc4c(F)ccc(NS(=O)(=O)c5cccc(Cl)c5Cl)c4F)ncnc3s2)CC1 [Example 122] | < 300 | < 300 | 30 to 300 | (13) % | < 300 | < 300 | < 300 |  |  |  |  |  | 
2 | Cc1ccc2c(Nc3cccc(Cl)c3F)nccc2c1NC(=O)c1csc2c(N)ncnc12 [Belvarafenib, reference compound] |  |  |  | (−12) % |  |  |  | 300 to 3000 | < 300 | < 30 | < 300 | < 300 | < 300
3 | Cc1c(F)cccc1S(=O)(=O)Nc1ccc(F)c(Nc2ncnc3sc(-n4cc(C(=O)N5C6CCC5CN(C)C6)c5ccccc54)nc23)c1F [Example 44] | < 300 | < 300 | 30 to 300 | (−10) % | < 300 | < 300 | < 300 |  |  |  |  |  | 
